How the values were obtained:
[1] = target: T1, RNase A (Bos taurus, UniProt P61823); assay: RNase Alert assay of RNase A activity recovery after SDS/DTT pretreatment; format: biochemical; settings: 2 ng RNase A, 2 minutes at 58° C.; 10 mM DTT and/or 0.2% SDS; then 4% βCD
T1 sequence (P61823 27-150): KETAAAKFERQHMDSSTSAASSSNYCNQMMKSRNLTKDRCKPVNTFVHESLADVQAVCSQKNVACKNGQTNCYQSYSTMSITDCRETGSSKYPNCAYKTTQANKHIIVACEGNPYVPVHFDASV
Experimental: 2 ng RNase A was incubated 2 minutes at 58° C. in […] solutions containing either 10 mM DTT+0.2% SDS (+), 0.2% SDS (triangle), 10 mM DTT (square), or neither (solid line) and then the RNase Alert assay was used to study the recovery of any RNase activity upon sequestration of SDS after dissolving lyophilized APA reagents without enzymes but containing RNase Alert substrate and protective agent (4% βCD) with continued incubation and fluorescence data collection at 58° C. In the presence of RNase activity, the RNase alert indicator substrate releases detectable fluorescence. […] FIG. 11A depicts recovery of RNase A activity after identical pretreatment without addition of βCD, in this case monitoring activity in […] of the solution by transfer to an RNase alert “wet” reaction format. […] Thus, as shown here, simultaneous treatment with ionic detergent and reducing agent is required for successful irreversible inactivation under the conditions described herein. […] Without being bound by any particular theory, this may be related to the impact of cyclodextrin and other APA additives on the refolding process. This example also provides further confirmation that the prior art and currently available methods (e.g, employing a reducing agent but no denaturant) are inadequate under these conditions, with an independent, commercially available RNase assay.

[2] = target: T1, RNase A; assay: Influenza B virus APA assay with RNase A in ELB (Elution/Lysis Buffer); format: biochemical; settings: RNAse A 10 μg/ml; 2 minutes 58° C. in ELB with 0.2% SDS, without or with 10 mM DTT; β-CD 4% final
Experimental: FIGS. 12A-12B depict data related to RNase A inactivation in an influenza B assay like the one in Example 4, with DTT in ELB (Elution/Lysis Buffer). […] After incubation, lyophilized APA reagents co-incubated 2 minutes 58° C., containing β-CD (4% final) were dissolved with the heated solutions, and FAM fluorescence collected every 15 seconds to monitor APA. […] The inclusion of DTT enables unimpeded operation of this POC influenza detection system in a mock sample containing very high level of purified RNase A ([…]). Moreover, while currently available methods can only achieve irreversible ribonuclease inactivation at a maximum 200 ng/ml, the compositions and methods provided herein show utility with 10 μg/ml to accommodate potentially larger amounts in patient samples.

CCCCCCCCCCCCOS(=O)(=O)[O-].[Na+] [SDS, sodium dodecyl sulfate]
Recovery of RNase A activity after pretreatment, with βCD [1]: virtually full recovery of enzyme activity
Influenza B virus APA performance in presence of RNAse A [2]: recovery of inhibitory levels of RNAse A

— patent US20250154607A1, “ISOTHERMAL AMPLIFICATION OF PATHOGENS” (priority 2021, published 2025)
